Experiment in all cases: NCI tumour cell line growth inhibition, 48 h
For assay [1], the system named is A549.
For assay [2], the system named is SK-OV-3.
The subject of assay [3] is SN12C.
The test system of assay [4] is TK-10.
Assay [5] concerns NCI-H522.
The test system of assay [6] is SF-268.
Assay [7] concerns SK-MEL-5.
Assay [8] concerns COLO 205.
For assay [9], the system named is MOLT-4.
Assay [10] relates to 786-0.
The subject of assay [11] is OVCAR-4.
For assay [12], the system named is KM12.
In assay [13] the test system is RPMI-8226.
In assay [14] the test system is EKVX.
The subject of assay [15] is RXF 393.
In assay [16] the test system is OVCAR-5.
Assay [17] concerns BT-549.
Assay [18] has as its system HOP-92.
Assay [19] concerns NCI/ADR-RES.
Assay [20] relates to SR.

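Exposure lasted 48 hours, with cells grown in 96-well plates and compounds tested at five concentrations. Abbreviation: GI50, concentration required for 50% inhibition of growth.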 The source made the active and inactive calls. Cut-off read from the data, not from the text of the source: active = GI50 up to about 1.1 µM and inactive = higher. Some results are limits rather than exact numbers.

For the compound `Oc1cc(-c2cccc(OCc3ccccc3)c2)nc2cc3c(cc12)OCO3`, the GI50 is 0.871 µM (active) in assay [1]; 0.342 µM (active) in assay [2]; 0.378 µM (active) in assay [3]; 2.32 µM (inactive) in [4]; 0.268 µM (active) in assay [5]; 8.34 µM (inactive) in assay [6]. The GI50 is 0.247 µM (active) in assay [7]; 1.31 µM (inactive) in [8]; 0.334 µM (active) in [9]; 0.374 µM (active) in assay [10]; 2.81 µM (inactive) in [11]; 0.491 µM (active) in assay [12]. For the same compound, the GI50 in assay [13] was 0.303 µM (active); in [14] it was 0.378 µM (active); in assay [15], 0.33 µM (active); in assay [16], 3.4 µM (inactive); in assay [17], 0.469 µM (active); in [18] it was 0.578 µM (active). Also, the GI50 in assay [19] is 0.226 µM (active); in assay [20], 0.397 µM (active).
Turning to `C[C@H]1[C@H]2[C@H](C[C@@]3(C)C4=CC[C@H]5C(C)(C)[C@@H](OC6OCC(O)C(O)C6O)CC[C@@]56C[C@@]46CC[C@]23C)O[C@@]2(O)[C@@H]1OC(C)(C)[C@H]2O` (stereo not given in full), the GI50 in [1] was 1.4 µM (inactive); in assay [2], 1.74 µM (inactive); in [3] it was 1.06 µM (active); in assay [4] it was 1.17 µM (inactive); in [5], 0.605 µM (active); in assay [6], 0.914 µM (active). The GI50 in assay [7] is 1.66 µM (inactive); in assay [8], 2.67 µM (inactive); in assay [9] it was 3.96 µM (inactive); in assay [10] it was 1.06 µM (active); in assay [11], 1.92 µM (inactive); in assay [12] it was 1.48 µM (inactive). Further, the GI50 in assay [13] was 1.15 µM (inactive); in [14], 1.12 µM (inactive); in assay [15], 1.2 µM (inactive); in [16], 4.75 µM (inactive); in assay [17], 1.86 µM (inactive); in assay [18], 1.09 µM (active). For the same compound, the results for the GI50 in assay [19] and in assay [20] were 2.67 µM (inactive) and 1.54 µM (inactive), respectively.
In the case of `N=C(CC(=O)Nc1ccccn1)c1ccccc1`, the GI50 in [1], in assay [2], in assay [3], in [4], in assay [5] and in assay [6] was > 100 µM (inactive) in each case. The GI50 in [7], in assay [8], in [9], in assay [10], in [11] and in assay [12] was > 100 µM (inactive) throughout. In addition, the GI50 in assay [13], in assay [14], in assay [15], in assay [16], in [17] and in assay [18] was > 100 µM (inactive) each time. Moreover, the GI50 in assay [19] and in [20] was > 100 µM (inactive) each time.
On to `O=CC(O)C(O)C(O)C1CNC(=S)O1` (stereo not given), for which the GI50 in assay [1], in assay [2], in assay [3], in assay [4], in assay [5] and in assay [6] was > 100 µM (inactive) throughout. Besides, the GI50 in [7], in assay [8], in [9], in assay [10], in assay [11] and in [12] was > 100 µM (inactive) throughout. Further, the GI50 in [13], in [14], in assay [15], in assay [16], in assay [17] and in assay [18] was > 100 µM (inactive) in each case. Also, the GI50 in assay [19] and in assay [20] was > 100 µM (inactive) throughout.
For the compound `S=C(CSc1ccccc1)Nc1cccc2ccccc12`, the GI50 in [1] was 42 µM (inactive); in assay [2] it was > 100 µM (inactive); in [3] it was 45.7 µM (inactive); in assay [4] it was 36.3 µM (inactive); in assay [5] it was 20.9 µM (inactive); in [6], 61.1 µM (inactive). Besides, the GI50 in assay [7] is 18.5 µM (inactive); in [8], 16.4 µM (inactive); in assay [9], 21.6 µM (inactive); in assay [10], 41.7 µM (inactive); in assay [11], 21.6 µM (inactive); in [12] it was 40.8 µM (inactive). Also, the GI50 was 35.6 µM (inactive) in assay [13]; 58.9 µM (inactive) in [14]; > 100 µM (inactive) in assay [15]; 72.1 µM (inactive) in assay [16]; 51.6 µM (inactive) in assay [17]; 56.2 µM (inactive) in assay [18]. Moreover, the GI50 in [19] is 46 µM (inactive); in [20] it was 22.5 µM (inactive).
With `C=CCc1cc(-c2cc(CC=C)c(O)c(CN(CCCl)CCCl)c2)cc(CN(CCCl)CCCl)c1O`, the GI50 was 13.7 µM (inactive) in assay [1]; 18.9 µM (inactive) in [2]; 9.68 µM (inactive) in assay [3]; 19.3 µM (inactive) in assay [4]; 10.9 µM (inactive) in assay [5]; 12.7 µM (inactive) in assay [6]. Besides, the GI50 in assay [7] is 16.8 µM (inactive); in assay [8] it was 17.7 µM (inactive); in [9] it was 2.52 µM (inactive); in assay [10], 7.94 µM (inactive); in assay [11], 17.6 µM (inactive); in [12], 18.2 µM (inactive). Also, the GI50 in assay [13] is 12.2 µM (inactive); in assay [14], 16 µM (inactive); in [15], 12.8 µM (inactive); in assay [16] it was 18.3 µM (inactive); in [17] it was 14.3 µM (inactive); in assay [18] it was 15.4 µM (inactive). The GI50 was 18.9 µM (inactive) in [19] and 0.627 µM (active) in assay [20].
For `COc1ccc2c(c1)/C(=C\c1c(Cl)[nH]c3cc(C)c(OC)cc13)C(=O)N2`, the GI50 in [1] is 1.19 µM (inactive); in [2], 0.423 µM (active); in assay [3], 2.09 µM (inactive); in assay [4], 1.64 µM (inactive); in [5] it was 1.19 µM (inactive); in assay [6], 0.986 µM (active). Moreover, the GI50 in assay [7] is 0.69 µM (active); in [8], 1.03 µM (active); in [9], 0.893 µM (active); in assay [10], 1.19 µM (inactive); in assay [11], 1.45 µM (inactive); in [12], 0.467 µM (active). Also, the GI50 was 0.942 µM (active) in assay [13]; 2.1 µM (inactive) in [14]; 0.891 µM (active) in [15]; 2.55 µM (inactive) in [16]; 0.679 µM (active) in [17]; 2.14 µM (inactive) in assay [18]. The GI50 is 0.811 µM (active) in assay [19] and 0.357 µM (active) in assay [20].
In the case of `O=C(Nc1ccccc1)c1cc(S(=O)(=O)Nc2n[nH]c(=O)n2-c2ccccc2)c(S)cc1Cl`, the GI50 in assay [1], in [2], in assay [3], in assay [4], in assay [5] and in assay [6] was > 100 µM (inactive) throughout. The GI50 in assay [7], in assay [8], in [9], in assay [10], in assay [11] and in [12] was > 100 µM (inactive) each time. For the same compound, the GI50 in assay [13], in [14], in assay [15], in assay [16], in [17] and in assay [18] was > 100 µM (inactive) each time. In addition, the GI50 in [19] and in assay [20] was > 100 µM (inactive) each time.

Values taken from ChEMBL document CHEMBL1201862, “PubChem BioAssay data set” (2004).
